# Data: paper PMC8912909, “Drug development for the treatment of onchocerciasis: Population pharmacokinetic and adverse events modeling of emodepside” (PLoS Neglected Tropical Diseases, 2022)
# Tests used:
# CYP3A4 = details: has been shown; no reference given; cited from earlier work
# [1] = human, in vivo, po; cited from earlier work
# Text: Currently, emodepside is under clinical development for the treatment of onchocerciasis, following a repurposing strategy and a collaboration agreement between DNDi and Bayer AG [26]. The safety, pharmacokinetics and relative bioavailability of emodepside after oral dosing in healthy male subjects have been evaluated in three phase I clinical trials, including a First-in-Human study. […] The long terminal half-life (> 20 d ...
# [2] = Safety analysis: drug-related treatment-emergent adverse events (TEAE) in three phase I studies; type: in vivo, human
# Protocol: For a detailed safety analysis for emodepside, based on the entire safety population (pharmacokinetic sample and placebo arms) of the phase I clinical trials the reader is referred to the recently published article by Gillon et al.. In the present study, the safety analysis and exposure–adverse events analysis was performed on all subjects whom were included in the population pharmacokinetic analysis (n = 142), i.e. all subjects who received at least 1 dose of the study drug as LSF solution, ASD-tablet A or ASD-tablet B. Safety was assessed in terms of incidence of a drug-related TEAE (as assessed by the investigator) and reported as Medical Dictionary for Regulatory Activities (MedDRA) code. A TEAE was defined as an event that emerged during treatment and having been absent pretreatment, or that worsened relative to the pretreatment state.
# [3] = Population pharmacokinetic model (NONMEM) of pooled phase I plasma and DBS concentrations
# [4] = Linear regression of DBS vs. plasma concentrations; set-up: species or system human; details: DBS concentration = slope × plasma concentration-0.592; r^2 = 0.987, n = 228
# Text: Deuterated emodepside-D16 was used as the internal standard.
# Supplementary file pntd.0010219.s008.tif: S1 Fig Linear regression analysis (emodepside DBS vs. plasma concentrations). Observations are represented by black open circles, the black solid line represents the line of identity, and the black dotted line represents the linear regression. DBS concentration = 0.605 × plasma concentration-0.592 (r^2 = 0.987, standard error of estimate, SEE = 5.74, n = 228). (TIF) Click here for additional data file.
# [5] = inter-compartmental clearance, oral, 75 kg adult, n = 142
# [6] = nonparametric bootstrap, 75 kg adult
smiles,measurement,setting,value
"CC(C)C[C@H]1C(=O)O[C@H](Cc2ccc(N3CCOCC3)cc2)C(=O)N(C)[C@@H](CC(C)C)C(=O)O[C@H](C)C(=O)N(C)[C@@H](CC(C)C)C(=O)O[C@H](Cc2ccc(N3CCOCC3)cc2)C(=O)N(C)[C@@H](CC(C)C)C(=O)O[C@H](C)C(=O)N1C [emodepside, Emodepside]",Enzyme catalyzing oxidative metabolism,CYP3A4,predominantly catalyzed by CYP3A4
same,Terminal half-life,[1],> 20 days
same,Time to resolution of drug-related TEAEs of interest after onset,[2]; all apart from visual impairment in one subject,≤ 48 h
same,Nature and severity of drug-related TEAEs,"[2]; all, apart from moderate headaches in two subjects at 40 mg LSF solution",transient in nature and mild in severity
same,"Lag of drug-related TEAE of interest relative to Tmax, most subjects",[2]; in vivo,0 to 2.5 h
same,Share of drug-related TEAEs of interest occurring at 1–3 h post-dose,[2]; in vivo,83%
same,Time to resolution of visual impairment in one subject,[2]; in vivo,21 days
same,Deaths or severe drug-related TEAEs,[2]; n = 142,no deaths or severe drug-related TEAEs reported
same,"Subjects with drug-related TEAEs of interest, %",[2]; n = 142,19.0%
same,"Abdominal pain, % of subjects with drug-related TEAE","[2]; n = 142, pooled phase I",0.7%
same,"Balance disorder, % of subjects with drug-related TEAE","[2]; n = 142, pooled phase I",0.7%
same,"Cough, % of subjects with drug-related TEAE","[2]; n = 142, pooled phase I",0.7%
same,"Disorientation, % of subjects with drug-related TEAE","[2]; n = 142, pooled phase I",0.7%
same,"Disturbance in attention, % of subjects with drug-related TEAE","[2]; n = 142, pooled phase I",0.7%
same,"Euphoric mood, % of subjects with drug-related TEAE","[2]; n = 142, pooled phase I",1.4%
same,"Eye disorders, % of subjects with drug-related TEAE","[2]; n = 142, pooled phase I",14.1%
same,"Eye pain, % of subjects with drug-related TEAE","[2]; n = 142, pooled phase I",0.7%
same,"Feeling of relaxation, % of subjects with drug-related TEAE","[2]; n = 142, pooled phase I",2.1%
same,"Gastrointestinal disorders, % of subjects with drug-related TEAE","[2]; n = 142, pooled phase I",2.8%
same,"General disorders and administration site conditions, % of subjects with drug-related TEAE","[2]; n = 142, pooled phase I",0.7%
same,"Headache, % of subjects with drug-related TEAE","[2]; n = 142, pooled phase I",4.2%
same,"Hypervigilance, % of subjects with drug-related TEAE","[2]; n = 142, pooled phase I",0.7%
same,"Muscle spasms, % of subjects with drug-related TEAE","[2]; n = 142, pooled phase I",0.7%
same,"Musculoskeletal and connective tissue disorders, % of subjects with drug-related TEAE","[2]; n = 142, pooled phase I",0.7%
same,"Nausea, % of subjects with drug-related TEAE","[2]; n = 142, pooled phase I",2.1%
same,"Nervous system disorders, % of subjects with drug-related TEAE","[2]; n = 142, pooled phase I",12.7%
same,"Nervousness, % of subjects with drug-related TEAE","[2]; n = 142, pooled phase I",0.7%
same,"Oropharyngeal pain, % of subjects with drug-related TEAE","[2]; n = 142, pooled phase I",0.7%
same,"Paraesthesia oral, % of subjects with drug-related TEAE","[2]; n = 142, pooled phase I",0.7%
same,"Photophobia, % of subjects with drug-related TEAE","[2]; n = 142, pooled phase I",1.4%
same,"Photopsia, % of subjects with drug-related TEAE","[2]; n = 142, pooled phase I",0.7%
same,"Pigmentation disorder, % of subjects with drug-related TEAE","[2]; n = 142, pooled phase I",0.7%
same,"Psychiatric disorders, % of subjects with drug-related TEAE","[2]; n = 142, pooled phase I",1.4%
same,"Respiratory, thoracic and mediastinal disorders, % of subjects with drug-related TEAE","[2]; n = 142, pooled phase I",0.7%
same,"Sensation of foreign body, % of subjects with drug-related TEAE","[2]; n = 142, pooled phase I",0.7%
same,"Skin and subcutaneous tissue disorders, % of subjects with drug-related TEAE","[2]; n = 142, pooled phase I",0.7%
same,"Somnolence, % of subjects with drug-related TEAE","[2]; n = 142, pooled phase I",0.7%
same,"Vision blurred, % of subjects with drug-related TEAE","[2]; n = 142, pooled phase I",4.9%
same,"Visual acuity reduced, % of subjects with drug-related TEAE","[2]; n = 142, pooled phase I",0.7%
same,"Visual impairment, % of subjects with drug-related TEAE","[2]; n = 142, pooled phase I",9.2%
same,"Vomiting, % of subjects with drug-related TEAE","[2]; n = 142, pooled phase I",0.7%
same,"Subjects with drug-related TEAEs, %","[2]; n = 142, pooled phase I, oral 1–40 mg",21.8%
same,"Abdominal pain, subjects experiencing drug-related TEAE","[2]; of n = 142, pooled phase I",1
same,"Balance disorder, subjects experiencing drug-related TEAE","[2]; of n = 142, pooled phase I",1
same,"Cough, subjects experiencing drug-related TEAE","[2]; of n = 142, pooled phase I",1
same,"Disorientation, subjects experiencing drug-related TEAE","[2]; of n = 142, pooled phase I",1
same,"Disturbance in attention, subjects experiencing drug-related TEAE","[2]; of n = 142, pooled phase I",1
same,"Euphoric mood, subjects experiencing drug-related TEAE","[2]; of n = 142, pooled phase I",2
same,"Eye disorders, subjects experiencing drug-related TEAE","[2]; of n = 142, pooled phase I",20
same,"Eye pain, subjects experiencing drug-related TEAE","[2]; of n = 142, pooled phase I",1
same,"Feeling of relaxation, subjects experiencing drug-related TEAE","[2]; of n = 142, pooled phase I",3
same,"Gastrointestinal disorders, subjects experiencing drug-related TEAE","[2]; of n = 142, pooled phase I",4
same,"General disorders and administration site conditions, subjects experiencing drug-related TEAE","[2]; of n = 142, pooled phase I",1
same,"Headache, subjects experiencing drug-related TEAE","[2]; of n = 142, pooled phase I",6
same,"Hypervigilance, subjects experiencing drug-related TEAE","[2]; of n = 142, pooled phase I",1
same,"Muscle spasms, subjects experiencing drug-related TEAE","[2]; of n = 142, pooled phase I",1
same,"Musculoskeletal and connective tissue disorders, subjects experiencing drug-related TEAE","[2]; of n = 142, pooled phase I",1
same,"Nausea, subjects experiencing drug-related TEAE","[2]; of n = 142, pooled phase I",3
same,"Nervous system disorders, subjects experiencing drug-related TEAE","[2]; of n = 142, pooled phase I",18
same,"Nervousness, subjects experiencing drug-related TEAE","[2]; of n = 142, pooled phase I",1
same,"Oropharyngeal pain, subjects experiencing drug-related TEAE","[2]; of n = 142, pooled phase I",1
same,"Paraesthesia oral, subjects experiencing drug-related TEAE","[2]; of n = 142, pooled phase I",1
same,"Photophobia, subjects experiencing drug-related TEAE","[2]; of n = 142, pooled phase I",2
same,"Photopsia, subjects experiencing drug-related TEAE","[2]; of n = 142, pooled phase I",1
same,"Pigmentation disorder, subjects experiencing drug-related TEAE","[2]; of n = 142, pooled phase I",1
same,"Psychiatric disorders, subjects experiencing drug-related TEAE","[2]; of n = 142, pooled phase I",2
same,"Respiratory, thoracic and mediastinal disorders, subjects experiencing drug-related TEAE","[2]; of n = 142, pooled phase I",1
same,"Sensation of foreign body, subjects experiencing drug-related TEAE","[2]; of n = 142, pooled phase I",1
same,"Skin and subcutaneous tissue disorders, subjects experiencing drug-related TEAE","[2]; of n = 142, pooled phase I",1
same,"Somnolence, subjects experiencing drug-related TEAE","[2]; of n = 142, pooled phase I",1
same,"Vision blurred, subjects experiencing drug-related TEAE","[2]; of n = 142, pooled phase I",7
same,"Visual acuity reduced, subjects experiencing drug-related TEAE","[2]; of n = 142, pooled phase I",1
same,"Visual impairment, subjects experiencing drug-related TEAE","[2]; of n = 142, pooled phase I",13
same,"Vomiting, subjects experiencing drug-related TEAE","[2]; of n = 142, pooled phase I",1
same,Subjects with both eye disorders and nervous system disorders,[2]; of the 27 subjects with TEAE of interest,41%
same,"Subjects with drug-related TEAEs of interest (eye disorders and nervous system disorders), number",[2]; out of 142 subjects,27
same,"Subjects with drug-related TEAEs, number",[2]; out of 142 subjects,31
same,"Incidence of non drug-related infections and infestations, active treatment arms","[2]; vs. 0% placebo, p=0.13 (two-sided Fisher's exact test)",10.5%
same,"Venous plasma–DBS scaling factor, population estimate (%RSE)","[3]; DBS concentration as % of venous plasma concentration, DBS from 12 subjects",61.8 (2.9) %
same,"Vc/F, population estimate (%RSE)","[3]; central volume of distribution, oral, 75 kg adult, n = 142",52.4 (3.4) L
same,Maximum difference in MTT between the lowest and the highest dose,"[3]; dose range 1–40 mg, 0.012–0.667 mg per kg body weight per day",70%
same,"Q1/F, population estimate (%RSE)",[3]; [5],4.60 (5.1) L/h
same,"Q2/F, population estimate (%RSE)",[3]; [5],8.45 (2.9) L/h
same,"Dose on MTT, population estimate (%RSE)","[3]; linear, dose range 1–40 mg",105 (22.3) % per mg /kg/day
same,CL/F,"[3]; male, human, in vivo, po",21.5 mL/min
same,"MTT, population estimate (%RSE)","[3]; mean absorption transit time, oral, reference LSF solution, fasted, 75 kg adult, n = 142 healthy male subjects",0.488 (3.5) h
same,"Dose on MTT, bootstrapping median (95% CI)",[3]; nonparametric bootstrap,104.5 (62.9–154) % per mg /kg/day
same,"Venous plasma–DBS scaling factor, bootstrapping median (95% CI)",[3]; nonparametric bootstrap,61.8 (58.2–65.2) %
same,"MTT, bootstrapping median (95% CI)","[3]; nonparametric bootstrap, 860 successful runs of 1,000, 75 kg adult",0.489 (0.456–0.521) h
same,"CL/F, bootstrapping median (95% CI)",[3]; [6],1.29 (1.18–1.40) L/h
same,"Q1/F, bootstrapping median (95% CI)",[3]; [6],4.60 (4.14–5.04) L/h
same,"Q2/F, bootstrapping median (95% CI)",[3]; [6],8.43 (7.97–8.87) L/h
same,"Vc/F, bootstrapping median (95% CI)",[3]; [6],52.4 (49.2–55.8) L
same,"Vp1 / F, bootstrapping median (95% CI)",[3]; [6],45.1 (38.0–53.4) L
same,"Vp2/F, bootstrapping median (95% CI)",[3]; [6],647 (592–707) L
same,Dose proportionality of exposure,"[3]; present study population, 1–40 mg",dose-proportional
same,"Food intake on MTT, population estimate (%RSE)",[3]; reference: fasted state,114 (22.6) %
same,Reduction in F when the dose was given together with food,[3]; reference: fasted state,24.4%
same,"Food intake on MTT, bootstrapping median (95% CI)","[3]; reference: fasted state, nonparametric bootstrap",114.7 (69.0–168) %
same,"Vp1 / F, population estimate (%RSE)","[3]; volume of distribution of peripheral compartment 1, oral, 75 kg adult, n = 142",44.4 (8.7) L
same,"Vp2/F, population estimate (%RSE)","[3]; volume of distribution of peripheral compartment 2, oral, 75 kg adult, n = 142",647 (4.5) L
same,"Slope of linear regression, DBS concentration vs. plasma concentration",[4],0.605
